Source: patent US12084434B2 (Scorpion Therapeutics, Inc., priority 2021, dated 2024)
Where two headings read alike, the source gives them in different places.

System: T47D pAKT (S473), PI3Kα H1047R mutation present
Experiment: HTRF pAKT-T47D;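 also: assay medium was RPMI with 10% FBS and 0.2 units/ml bovine insulin, without phenol red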
[1] = read-out: T47D pAKT IC50, T47D.1 cells, pAKT (S473) HTRF, 1 hour
[2] = Homo sapiens, T47D, 1 h, read-out: T47D pAKT IC50 (nM), T47D.1 cells, pAKT (S473) HTRF, 1 hour

Protocol: Homogenous Time-Resolved Fluorescence (HTRF)—pAKT-T47D
Compounds were assayed using homogeneous time-resolved fluorescence (HTRF).
Gibco RPMI 1640 Medium, no phenol red; Gibco RPMI 1640 Medium; Gibco Trypsin-EDTA (0.5%), no phenol red; Gibco DPBS; Trypan blue solution 0.4% (Corning); Avantor Seradigm Premium Grade Fetal Bovine Serum (FBS); Greiner 784080-384 well TC treated white plates; pAKT (Ser473) HTRF; Gibco Insulin, human recombinant, zinc solution; Gibco Recovery Cell Culture Freezing Medium; Countess II FL Automated Cell Counter (ThermoFisher); Countess II Slides (ThermoFisher); Microscope; and PHERAstar FSX Microplate Reader (BMG LABTECH, Inc.).
The scinamic cell line ID was T47D.1, the HTRF detection was pAKT (S473), a PI3Kα H1047R mutation was present, the seeding density was 5000, the timepoint was 1 hour, and the medium used was RPMI+10% FBS (no phenol red)+0.2 units/ml bovine insulin.
• The cell density was not permitted to reach 100% confluence. The cells were split 1:5 when they reached ˜80% confluence. • Cells were split twice a week (Mon and Fri). • Cells over passage 18 were not used (˜2 months of maintenance). • Antibiotics were not used for tissue culture maintenance or assays. […] Protocol Day1
The procedure was as follows: • 1. Prepared ARP: • a. Stamped 12.5 nL from 10 μmM source plate to destination plate using Echo. Sealed plate immediately and froze at −20° C. if it was not used on the same day. • b. If a frozen ARP was used, the plate was thawed and spun at 1000 rpm×1 min. • 2. Preparation of cells (adherent): • a. Aspirated media from cells. Washed cells with sterile 1XPBS. Aspirated PBS and added appropriate amount of Trypsin. • b. Once cells were fully trypsinized, added appropriate media to resuspend cells. Transferred cells to a 15 mL or 50 mL conical tube. • c. Counted cells on the Countess II Cell Counter. • 3. Plating of cells: • a. Prepared cells at appropriate plating density. Dispensed 12 μL of diluted cells per well of a Greiner 784080-384 well TC treated white plate using a Multidrop Combi to columns 1-23. Added 12 uL of appropriate phenol free media only to column 24. • b. Placed plates in 37° C. tissue culture incubator for appropriate treatment time (refer to “Assay” table). • 4. Prepared HTRF Lysis Buffer • a. Calculate the amount of HTRF lysis buffer master mix needed to perform the desired experiments plus any extra dead volume required for dispensing (4 μL required per well). […] Add 4 uL Lysis buffer master mix to all wells with sample or DMSO. Centrifuge the plates for 1 minute at 1000 rpm. • c. Incubate at room temperature for 30 minutes. • 5. Prepared HTRF Antibody • a.

Structure (SMILES) | IC50 [1] [nM] | IC50 [2] [nM]
CCc1c(C(NC(=O)Nc2cnc(N)nc2)C(F)(F)F)oc2ccc(F)cc12 (racemic) [Compound 132, 1-(2-aminopyrimidin-5-yl)-3-[1-(3-ethyl-5-fluoro-1-benzofuran-2-yl)-2,2,2-trifluoroethyl]urea] | < 1000 | 
CCc1c(C(NC(=O)Nc2cnc(N)nc2)C(F)(F)F)oc2ccc(F)cc12 (racemic) [Compound 133, 1-(2-aminopyrimidin-5-yl)-3-[1-(3-ethyl-5-fluoro-1-benzofuran-2-yl)-2,2,2-trifluoroethyl]urea] | > 5000 | 
Cc1c(C(NC(=O)Nc2cnc(N3CC(O)C3)nc2)C(F)(F)F)oc2ccc(Cl)cc12 (racemic) [Compound 153, 3-[1-(5-chloro-3-methyl-1-benzofuran-2-yl)-2,2,2-trifluoroethyl]-1-[2-(3-hydroxyazetidin-1-yl)pyrimidin-5-yl]urea] | > 5000 | 
Cc1c(C(NC(=O)Nc2cnc(N3CC(O)C3)nc2)C(F)(F)F)oc2ccc(Cl)cc12 (racemic) [Compound 154, 3-[1-(5-chloro-3-methyl-1-benzofuran-2-yl)-2,2,2-trifluoroethyl]-1-[2-(3-hydroxyazetidin-1-yl)pyrimidin-5-yl]urea] | < 1000 | 
Cc1c(C(NC(=O)Nc2cnc(N)nc2)C(F)(F)F)oc2c(F)cc(Cl)cc12 (racemic) [Compound 155, 1-(2-aminopyrimidin-5-yl)-3-[1-(5-chloro-7-fluoro-3-methyl-1-benzofuran-2-yl)-2,2,2-trifluoroethyl]urea] | > 5000 | 
Cc1c(C(NC(=O)Nc2cnc(N)nc2)C(F)(F)F)oc2c(F)cc(Cl)cc12 (racemic) [Compound 156, 1-(2-aminopyrimidin-5-yl)-3-[1-(5-chloro-7-fluoro-3-methyl-1-benzofuran-2-yl)-2,2,2-trifluoroethyl]urea] | < 1000 | 
Cc1c(C(NC(=O)Nc2cnc(N3CC(O)C3)nc2)C(F)(F)F)oc2c(F)cc(Cl)cc12 (racemic) [Compound 157, 3-[1-(5-chloro-7-fluoro-3-methyl-1-benzofuran-2-yl)-2,2,2-trifluoroethyl]-1-[2-(3-hydroxyazetidin-1-yl)pyrimidin-5-yl]urea] | < 1000 | 
Cc1c(C(NC(=O)Nc2cnc(N3CC(O)C3)nc2)C(F)(F)F)oc2c(F)cc(Cl)cc12 (racemic) [Compound 158, 3-[1-(5-chloro-7-fluoro-3-methyl-1-benzofuran-2-yl)-2,2,2-trifluoroethyl]-1-[2-(3-hydroxyazetidin-1-yl)pyrimidin-5-yl]urea] | > 5000 | 
Cc1c(C(NC(=O)Nc2cnc(N3CC4(COC4)C3)nc2)C(F)(F)F)oc2c(F)cc(F)cc12 (racemic) [Compound 171, 1-(2-(2-oxa-6-azaspiro[3.3]heptan-6-yl)pyrimidin-5-yl)-3-(1-(5,7-difluoro-3-methylbenzofuran-2-yl)-2,2,2-trifluoroethyl)urea] | > 5000 | 
Cc1c(C(NC(=O)Nc2cnc(N3CC4(COC4)C3)nc2)C(F)(F)F)oc2c(F)cc(F)cc12 (racemic) [Compound 172, 1-(2-(2-oxa-6-azaspiro[3.3]heptan-6-yl)pyrimidin-5-yl)-3-(1-(5,7-difluoro-3-methylbenzofuran-2-yl)-2,2,2-trifluoroethyl)urea] | < 1000 | 
Cc1c(C(NC(=O)Nc2cnc(N)nc2)C(F)(F)F)oc2c(Cl)cc(F)cc12 (racemic) [Compound 177, 1-(2-aminopyrimidin-5-yl)-3-[1-(7-chloro-5-fluoro-3-methyl-1-benzofuran-2-yl)-2,2,2-trifluoroethyl] urea] | > 5000 | 
Cc1c(C(NC(=O)Nc2cnc(N)nc2)C(F)(F)F)oc2c(Cl)cc(F)cc12 (racemic) [Compound 178, 1-(2-aminopyrimidin-5-yl)-3-[1-(7-chloro-5-fluoro-3-methyl-1-benzofuran-2-yl)-2,2,2-trifluoroethyl] urea] | < 1000 | 
Cc1c(C(NC(=O)Nc2ccc(N3CC(O)C3)nc2)C(F)(F)F)oc2c(F)cc(F)cc12 (racemic) [Compound 179, 3-[1-(5,7-difluoro-3-methyl-1-benzofuran-2-yl)-2,2,2-trifluoroethyl]-1-[6-(3-hydroxyazetidin-1-yl)pyridin-3-yl]urea] | > 5000 | 
Cc1c(C(NC(=O)Nc2ccc(N3CC(O)C3)nc2)C(F)(F)F)oc2c(F)cc(F)cc12 (racemic) [Compound 180, 3-[1-(5,7-difluoro-3-methyl-1-benzofuran-2-yl)-2,2,2-trifluoroethyl]-1-[6-(3-hydroxyazetidin-1-yl)pyridin-3-yl]urea] | < 1000 | 
Cc1c(C(NC(=O)Nc2cnc(N3CC(S(C)(=O)=O)C3)nc2)C(F)(F)F)oc2c(F)cc(F)cc12 (racemic) [Compound 185, 1-(1-(5,7-difluoro-3-methylbenzofuran-2-yl)-2,2,2-trifluoroethyl)-3-(2-(3-(methylsulfonyl)azetidin-1-yl)pyrimidin-5-yl)urea] |  | 1000 to 5000
Cc1c(C(NC(=O)Nc2cnc(N3CC(S(C)(=O)=O)C3)nc2)C(F)(F)F)oc2c(F)cc(F)cc12 (racemic) [Compound 186, 1-(1-(5,7-difluoro-3-methylbenzofuran-2-yl)-2,2,2-trifluoroethyl)-3-(2-(3-(methylsulfonyl)azetidin-1-yl)pyrimidin-5-yl)urea] | < 1000 | 
Cc1c([C@@H](NC(=O)Nc2cnc(N3C[C@@H](O)[C@@H]3C)nc2)C(C)C)oc2ccc(F)cc12 (relative stereo) [Compound 148, 3-[(1S)-1-(5-fluoro-3-methyl-1-benzofuran-2-yl)-2-methylpropyl]-1-{2-[(2R*,3R**)-3-hydroxy-2-methylazetidin-1-yl]pyrimidin-5-yl}urea] |  | < 1000

Structure (SMILES) | IC50 [1] [nM] | IC50 [2] [nM]
Cc1c([C@@H](NC(=O)Nc2cnc(N3C[C@H](O)[C@H]3C)nc2)C(C)C)oc2ccc(F)cc12 (relative stereo) [Compound 149, 3-[(1S)-1-(5-fluoro-3-methyl-1-benzofuran-2-yl)-2-methylpropyl]-1-{2-[(2R*,3R**)-3-hydroxy-2-methylazetidin-1-yl]pyrimidin-5-yl}urea] |  | < 1000
Cc1c([C@@H](NC(=O)Nc2cnc(N3CC(O)C3)nc2)C(F)(F)F)oc2c(F)cc(F)cc12 (single isomer, unassigned) [Compound 91] |  | < 1000
Cc1c([C@H](NC(=O)Nc2cnc(N3CC(C)(O)C3)nc2)C(F)(F)F)oc2c(F)cc(F)cc12 (single isomer, unassigned) [Compound 93] |  | < 1000
CC[C@H](NC(=O)Nc1cnc(N)nc1)c1oc2ccc(F)cc2c1C (single isomer, unassigned) [Compound 100] |  | < 1000
Cc1c(C(NC(=O)Nc2cnc(N[C@H](C)CO)nc2)C(F)(F)F)oc2c(F)cc(F)cc12 (single isomer, unassigned) [Compound 187] | > 5000 | 
Cc1c(C(NC(=O)Nc2cnc(N[C@H](C)CO)nc2)C(F)(F)F)oc2c(F)cc(F)cc12 (single isomer, unassigned) [Compound 188] | < 1000 | 
Cc1c(C(NC(=O)Nc2cnc(N3CCNC(=O)C3)nc2)C(F)(F)F)oc2c(F)cc(F)cc12 (single isomer, unassigned) [Compound 189, 1-(1-(5,7-difluoro-3-methylbenzofuran-2-yl)-2,2,2-trifluoroethyl)-3-(2-(3-oxopiperazin-1-yl)pyrimidin-5-yl)urea] | < 1000 | 
Cc1c(C(NC(=O)Nc2cnc(N3CCNC(=O)C3)nc2)C(F)(F)F)oc2c(F)cc(F)cc12 (single isomer, unassigned) [Compound 190, 1-(1-(5,7-difluoro-3-methylbenzofuran-2-yl)-2,2,2-trifluoroethyl)-3-(2-(3-oxopiperazin-1-yl)pyrimidin-5-yl)urea] | > 5000 | 
Cc1c(C(NC(=O)Nc2cnc(N3CCC(O)CC3)nc2)C(F)(F)F)oc2c(F)cc(F)cc12 (single isomer, unassigned) [Compound 191] |  | 1000 to 5000
Cc1c(C(NC(=O)Nc2cnc(N3CCC(O)CC3)nc2)C(F)(F)F)oc2c(F)cc(F)cc12 (single isomer, unassigned) [Compound 192] | < 1000 | 
Cc1c(C(NC(=O)Nc2cnc(N[C@@H](C)CO)nc2)C(F)(F)F)oc2c(F)cc(F)cc12 (single isomer, unassigned) [Compound 195] | > 5000 | 
Cc1c(C(NC(=O)Nc2cnc(N[C@@H](C)CO)nc2)C(F)(F)F)oc2c(F)cc(F)cc12 (single isomer, unassigned) [Compound 196] | < 1000 | 
Cc1c(C(NC(=O)Nc2cnc(N3CC(C(=O)O)C3)nc2)C(F)(F)F)oc2c(F)cc(F)cc12 (single isomer, unassigned) [Compound 197, 1-[5-({[1-(5,7-difluoro-3-methyl-1-benzofuran-2-yl)-2,2,2-trifluoroethyl]carbamoyl}amino)pyrimidin-2-yl]azetidine-3-carboxylic acid] | < 1000 | 
Cc1c(C(NC(=O)Nc2cnc(N3CC(C(=O)O)C3)nc2)C(F)(F)F)oc2c(F)cc(F)cc12 (single isomer, unassigned) [Compound 198, 1-[5-({[1-(5,7-difluoro-3-methyl-1-benzofuran-2-yl)-2,2,2-trifluoroethyl]carbamoyl}amino)pyrimidin-2-yl]azetidine-3-carboxylic acid] | > 5000 | 
Cc1c(C(NC(=O)Nc2cnc(N3CC(O)C3)nc2)C(F)(F)F)oc2c(Cl)cc(F)cc12 (single isomer, unassigned) [Compound 199, 3-[1-(7-chloro-5-fluoro-3-methyl-1-benzofuran-2-yl)-2,2,2-trifluoroethyl]-1-[2-(3-hydroxyazetidin-1-yl)pyrimidin-5-yl] urea] | > 5000 | 
Cc1c(C(NC(=O)Nc2cnc(N3CC(O)C3)nc2)C(F)(F)F)oc2c(Cl)cc(F)cc12 (single isomer, unassigned) [Compound 200, 3-[1-(7-chloro-5-fluoro-3-methyl-1-benzofuran-2-yl)-2,2,2-trifluoroethyl]-1-[2-(3-hydroxyazetidin-1-yl)pyrimidin-5-yl] urea] | < 1000 | 
Cc1c(C(NC(=O)Nc2cnc(N3CC(C)(O)C3)nc2)C(F)(F)F)oc2c(Cl)cc(F)cc12 (single isomer, unassigned) [Compound 201, 1-(1-(7-chloro-5-fluoro-3-methylbenzofuran-2-yl)-2,2,2-trifluoroethyl)-3-(2-(3-hydroxy-3-methylazetidin-1-yl)pyrimidin-5-yl)urea] | > 5000 | 
